We go through nine compounds from patent US12098109B2, “Reaction methods for producing nitrogenous phosphoryl compounds that are in situ fluid compositions” (SOILGENIC TECHNOLOGIES, LLC, priority 2021, dated 2024).

Read-outs that look alike come from different tables or passages of the source.

A short description of data set [1]: Stability by top clear layer after 3 days @ 50 C. It counts as physicochemical. The procedure:
(§1) Stability was determined by the measurement of the top clear layer after 3 days @ 50° C. Flowability was determined by measuring the elapsed time that it took for 4 grams of the 5 gram sample to flow out of a container with a 0.9 cm opening @ 25° C.

Data set [2] can be described thus: 1% dispersibility in water, 1 gram of sample in 99 grams of water.
Data set [3] is described as follows: Flowability by elapsed flow-out time. It counts as physicochemical. As for the experimental part:
as §1

Data set [4] can be described thus: Sedimentation of inorganic chloride particles of Example 14 after adding organic liquids. Type of data set: physicochemical.
Data set [5] has as its system West Texas Soil (Estacado Clay Loam). The data set can be described thus: Ammonia generation from treated urea on soil, headspace NH3 by Draeger am-5000 meter. Conditions: for Measuring Ammonia Generation, Days Ran 3: day 3; for Measuring Ammonia Generation, Days Ran 4: day 4; for Measuring Ammonia Generation, Days Ran 5: day 5; for Measuring Ammonia Generation, Days Ran 6: day 6; for Measuring Ammonia Generation, Days Ran 7: day 7; for Measuring Ammonia Generation, Days Ran 10: day 10; for Measuring Ammonia Generation, Days Ran 11: day 11; for Measuring Ammonia Generation, Days Ran 13: day 13.

The test system is the same in data set [6]. Nature of the data set: Ammonia generation, N Yield vs N Yield + NH4Cl solutions with urea dropped onto soil sample. The following applies: in the presence of NBPT.
The test system is the same in data set [7]. The data set can be described thus: NH4Cl vs DCD as nitrification inhibitor, ammonia generation from treated urea. Conditions: compared to DCD.
Setting [8] is: 4% organic liquid added to Example 56, top clear layer after 3 days @ 50 C.
Where [9] appears, read: 4% organic liquid added to Example 56.
[10] abbreviates: 4% organic liquid added to Example 56, time for 4 grams of 5 gram sample to flow out of 0.9 cm opening @ 25 C.
[11] abbreviates: One Month Storage of treated urea.
The mark [12] stands for this setting: Two Month Storage of treated urea.
[13] abbreviates: organic liquid added to Example 56 at a 4% level.

In the case of `C[S+](C)[O-]` [dimethyl sulfoxide], the “Clear layer (cm)” value in data set [1] (setting [8]) was found to be 0 cm. Further, the “1% dispersibility in water rating” value in data set [2] (setting [9]) came to 4. For the same compound, in data set [3] (setting [10]), the “seconds (flowability)” value was 20.3 s. Moreover, the “Clear layer in inches of a 4 inch sample” value is listed as under 1 inches in data set [4] (8 grams added/25 grams of Example 14, within 24 hours of standing) and 1 inches in data set [4] (25 grams added/25 grams of Example 14, within 24 hours of standing).
On to butyl carbonate, for which, in data set [4], the “Clear layer in inches of a 4 inch sample” value turned out to be 0 inches.
For `CC[N+](C)(CC)CC.[Cl-]` [triethyl methyl ammonium chloride], in data set [4] (2 grams added/25 grams of Example 14, within 24 hours of standing), the “Clear layer in inches of a 4 inch sample” value is 0 inches.
Turning to `CN1CCCC1=O` [N-methyl pyrrolidone], in data set [1] (setting [8]), the “Clear layer (cm)” value came out at 0.45 cm. For the same compound, the “1% dispersibility in water rating” value in data set [2] (setting [9]) was 3. Further, the “seconds (flowability)” value in data set [3] (setting [10]) is 2.49 s.
Consider `CCOP(=O)(OCC)OCC` [triethyl phosphate], for which the “Clear layer (cm)” value in data set [1] is 0.4 cm. Also, in data set [2], the “1% dispersibility in water rating” value was 6 and the “effect on Example 56's dispersibility in water” value (“effect” below) is “improve Example 56's dispersibility in water significantly”. Also, the “seconds (flowability)” value in data set [3] stood at 4.03 s. Moreover, the “Clear layer in inches of a 4 inch sample” value in data set [4] is reported as 0 inches.
`CCCCNP(N)(N)=S` [NBPT, N-(n-butyl)-thiophosphoric triamide]: in data set [5] (Initial), the “Measuring Ammonia Generation, Days Ran 3” value is 9 ppm; the “Measuring Ammonia Generation, Days Ran 4” value was found to be 10 ppm; the “Measuring Ammonia Generation, Days Ran 5” value was found to be 4 ppm; the “Measuring Ammonia Generation, Days Ran 6” value was found to be 4 ppm. Moreover, in data set [5] (Initial), the “Measuring Ammonia Generation, Days Ran 7” value was found to be 14 ppm; the “Measuring Ammonia Generation, Days Ran 10” value worked out at 97 ppm; the “Measuring Ammonia Generation, Days Ran 11” value turned out to be 88 ppm. Besides, the “Measuring Ammonia Generation, Total” value in data set [5] (Initial, total of days 3-11) amounted to 226 ppm. In data set [5] (setting [11]), the “Measuring Ammonia Generation, Days Ran 3” value was determined as 111 ppm; the “Measuring Ammonia Generation, Days Ran 4” value was found to be 51 ppm; the “Measuring Ammonia Generation, Days Ran 5” value is recorded as 57 ppm; the “Measuring Ammonia Generation, Days Ran 6” value is given as 98 ppm. Further, in data set [5] (setting [11]), the “Measuring Ammonia Generation, Days Ran 7” value amounted to 236 ppm; the “Measuring Ammonia Generation, Days Ran 10” value is 349 ppm; the “Measuring Ammonia Generation, Days Ran 11” value is listed as 251 ppm; the “Measuring Ammonia Generation, Days Ran 13” value is recorded as 153 ppm. Besides, the “Measuring Ammonia Generation, Days Ran 12” value in data set [5] (One Month Storage of treated urea, day 12) is reported as 301 ppm. Further, in data set [5] (One Month Storage of treated urea, total of days 3-13), the “Measuring Ammonia Generation, Total” value was determined as 1607 ppm. In addition, the “Measuring Ammonia Generation, Days Ran 1” value in data set [5] (Two Month Storage of treated urea, day 1) worked out at 103 ppm. Also, in data set [5] (setting [12]), the “Measuring Ammonia Generation, Days Ran 5” value is 99 ppm; the “Measuring Ammonia Generation, Days Ran 6” value is on record as 32 ppm; the “Measuring Ammonia Generation, Days Ran 7” value was determined as 129 ppm; the “Measuring Ammonia Generation, Days Ran 13” value is 152 ppm. Besides, in data set [5] (Two Month Storage of treated urea, day 8), the “Measuring Ammonia Generation, Days Ran 8” value came to 159 ppm. For the same compound, the “Measuring Ammonia Generation, Days Ran 9” value in data set [5] (Two Month Storage of treated urea, day 9) amounted to 130 ppm. The “Measuring Ammonia Generation, Days Ran 14” value in data set [5] (Two Month Storage of treated urea, day 14) was 66 ppm. In addition, in data set [5] (Two Month Storage of treated urea, day 15), the “Measuring Ammonia Generation, Days Ran 15” value stood at 49 ppm. In data set [5] (Two Month Storage of treated urea, day 16), the “Measuring Ammonia Generation, Days Ran 16” value was determined as 68 ppm. For the same compound, the “Measuring Ammonia Generation, Total” value in data set [5] (Two Month Storage of treated urea, total) stood at 884 ppm.
Turning to `OCC(O)CO` [Glycerin], the “Clear layer (cm)” value in data set [1] (setting [8]) is reported as 0.4 cm. The “1% dispersibility in water rating” value in data set [2] (setting [9]) came out at 6. Moreover, the “effect” value in data set [2] (setting [13]) is recorded as “improve Example 56's dispersibility in water significantly”. In data set [3] (setting [10]), the “seconds (flowability)” value was found to be 2.35 s.
For the compound `Cl.N` [NH4Cl, ammonium chloride], the “behaviour in ammonia generation test” value in data set [6] is listed as “performing as a nitrification inhibitor”. Also, the “performance as a nitrification inhibitor” value in data set [7] is “equivalent to DCD”.
Take `CC1(C)OCC(CO)O1` (stereo not drawn) [2,2-dimethyl-l,3-dioxolane-4-methanol, 2,2-dimethyl-1,3-dioxolane-4-methanol]: the “Clear layer (cm)” value in data set [1] (setting [8]) was 0.3 cm. In addition, the “1% dispersibility in water rating” value in data set [2] (setting [9]) turned out to be 6. For the same compound, the “effect” value in data set [2] (setting [13]) is “improve Example 56's dispersibility in water significantly”. Besides, in data set [3] (setting [10]), the “seconds (flowability)” value was 3.85 s.
